Data: patent US9796733B2, “Imidazo-pyrazine derivatives useful as soluble guanylate cyclase activators” (Merck Sharp & Dohme Corp., priority 2014, dated 2017)

Target: T1, sGC α1/β1 heterodimer (Homo sapiens, UniProt Q02108+Q02153)
T1 construct: expressed in transfected cells; host or cells: CHO-K1 (clone #7, CHO-K1/sGC)
T1 sequence (Q02108 1-690): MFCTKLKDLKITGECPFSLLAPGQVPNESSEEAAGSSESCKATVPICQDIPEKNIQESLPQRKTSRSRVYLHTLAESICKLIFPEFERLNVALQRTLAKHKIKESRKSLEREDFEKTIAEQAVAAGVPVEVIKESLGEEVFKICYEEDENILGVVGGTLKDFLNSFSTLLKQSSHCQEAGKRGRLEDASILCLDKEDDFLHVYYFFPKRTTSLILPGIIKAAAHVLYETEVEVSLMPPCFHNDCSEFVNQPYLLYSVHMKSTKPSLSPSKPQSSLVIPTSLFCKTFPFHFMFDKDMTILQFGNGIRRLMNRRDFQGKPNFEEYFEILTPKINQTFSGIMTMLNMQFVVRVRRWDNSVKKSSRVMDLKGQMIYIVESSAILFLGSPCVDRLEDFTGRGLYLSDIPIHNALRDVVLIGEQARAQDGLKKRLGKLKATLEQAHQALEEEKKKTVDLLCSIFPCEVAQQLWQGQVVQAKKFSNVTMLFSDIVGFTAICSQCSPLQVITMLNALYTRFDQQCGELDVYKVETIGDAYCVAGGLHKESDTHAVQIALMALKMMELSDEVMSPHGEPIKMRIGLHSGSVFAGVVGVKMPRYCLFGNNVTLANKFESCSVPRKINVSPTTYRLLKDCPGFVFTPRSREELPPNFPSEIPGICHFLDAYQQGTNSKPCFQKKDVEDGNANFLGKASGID
T1 sequence (Q02153 1-619): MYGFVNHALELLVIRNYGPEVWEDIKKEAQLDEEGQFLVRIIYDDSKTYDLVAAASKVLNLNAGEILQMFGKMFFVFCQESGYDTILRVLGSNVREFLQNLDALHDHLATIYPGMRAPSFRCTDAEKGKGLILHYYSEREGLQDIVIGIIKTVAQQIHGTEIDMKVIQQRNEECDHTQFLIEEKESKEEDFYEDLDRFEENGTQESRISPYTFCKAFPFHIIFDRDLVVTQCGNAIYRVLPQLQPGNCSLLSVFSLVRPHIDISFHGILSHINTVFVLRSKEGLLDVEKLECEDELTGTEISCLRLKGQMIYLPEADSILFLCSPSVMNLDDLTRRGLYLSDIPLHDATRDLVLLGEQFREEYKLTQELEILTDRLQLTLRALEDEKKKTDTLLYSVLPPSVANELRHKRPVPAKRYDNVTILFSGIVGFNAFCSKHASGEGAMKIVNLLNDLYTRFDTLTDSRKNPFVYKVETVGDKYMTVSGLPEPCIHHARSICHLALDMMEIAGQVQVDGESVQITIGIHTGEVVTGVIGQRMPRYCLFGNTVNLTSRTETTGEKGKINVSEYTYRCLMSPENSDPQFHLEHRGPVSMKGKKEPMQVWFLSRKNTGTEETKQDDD
Assay: Cell-based sGC functional assay (CASA assay): cGMP generation in CHO-K1/sGC cells, HTRF detection
Settings: for Emax: CHO-K1, percent activation relative to standard Compound A in CHO-K1/sGC cells, read-out: % Act.; for EC50: inflection point (IP) of cGMP generation in CHO-K1/sGC cells, 4P fit, activity expressed as percentage of Compound A
Procedure, shortened: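 cGMP was quantified by HTRF after 1 hr, 37° C exposure of thawed CHO-K1 cells expressing sGC α1/β1 to compound, with or without 1 μM DETA-NO. IBMX (0.5 mM) blocked cGMP breakdown, and DMSO was 2.5% final. Percent of standard Compound A's maximal cGMP was fitted (4P) for inflection point.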

Row | Emax [%] | EC50 [nM] | Compound
1 | 145 | 56 | CC(C)(C)CCc1nc(-c2nc(N)c3c(n2)NC(=O)C3(C)c2ccc(F)cc2)cn2ccnc12 (stereo not shown) [Example 121A, 4-amino-2-(8-(3,3-dimethylbutyl)imidazo[1,2-a]pyrazin-6-yl)-5-(4-fluorophenyl)-5-methyl-5H-pyrrolo[2,3-d]pyrimidin-6(7H)-one]
2 | 119 | 92 | CC(C)(C)CCc1nc(-c2nc(N)c3c(n2)NC(=O)C3(C)c2ccc(F)cn2)cn2ccnc12 (stereo not shown) [Example 122B, 4-amino-2-(8-(3,3-dimethylbutyl)imidazo[1,2-a]pyrazin-6-yl)-5-(5-fluoropyridin-2-yl)-5-methyl-5H-pyrrolo[2,3-d]pyrimidin-6(7H)-one]
3 | 105 | 61 | CC(C)(C)CCc1nc(-c2nc(N)c3c(n2)NC(=O)C3(C)c2ccc(Cl)cn2)cn2ccnc12 (stereo not shown) [Example 123A, 4-amino-5-(5-chloropyridin-2-yl)-2-(8-(3,3-dimethylbutyl)imidazo[1,2-a]pyrazin-6-yl)-5-methyl-5H-pyrrolo[2,3-d]pyrimidin-6(7H)-one]
4 | 97 | 41 | CC(C)Cc1nc(-c2nc(N)c3c(n2)NC(=O)C3(C)c2ccc(Cl)cn2)cn2ccnc12 (stereo not shown) [Example 125A, 4-amino-5-(5-chloropyridin-2-yl)-2-(8-isobutylimidazo[1,2-a]pyrazin-6-yl)-5-methyl-5H-pyrrolo[2,3-d]pyrimidin-6(7H)-one]
5 | 160 | 242 | CC(C)Cc1nc(-c2nc(N)c3c(n2)NC(=O)C3(c2ccc(Cl)cn2)C2CC2)cn2ccnc12 (stereo not shown) [Example 126B, 4-amino-5-(5-chloropyridin-2-yl)-5-cyclopropyl-2-(8-isobutylimidazo[1,2-a]pyrazin-6-yl)-5H-pyrrolo[2,3-d]pyrimidin-6(7H)-one]
6 | 105 | 518 | CC(C)Cc1nc(-c2nc(N)c3c(n2)NC(=O)C3(c2ccc(C(F)(F)F)cn2)C2CC2)cn2ccnc12 (stereo not shown) [Example 127A, 4-amino-5-cyclopropyl-2-(8-isobutylimidazo[1,2-a]pyrazin-6-yl)-5-(5-(trifluoromethyl)pyridin-2-yl)-5H-pyrrolo[2,3-d]pyrimidin-6(7H)-one]
7 | 108 | 164 | CC(C)Cc1nc(-c2nc(N)c3c(n2)NC(=O)C3(C)c2ccc(C(F)(F)F)cc2)cn2ccnc12 (stereo not shown) [Example 128B, 4-amino-2-(8-isobutylimidazo[1,2-a]pyrazin-6-yl)-5-methyl-5-(4-(trifluoromethyl)phenyl)-5H-pyrrolo[2,3-d]pyrimidin-6(7H)-one]
8 | 119 | 324 | CC(C)Cc1nc(-c2nc(N)c3c(n2)NC(=O)C3(C)c2ccc(OC(F)F)cn2)cn2ccnc12 (stereo not shown) [Example 130A, 4-amino-5-(5-(difluoromethoxy)pyridin-2-yl)-2-(8-isobutylimidazo[1,2-a]pyrazin-6-yl)-5-methyl-5H-pyrrolo[2,3-d]pyrimidin-6(7H)-one]
9 | 129 | 37 | CCCCc1nc(-c2nc(N)c3c(n2)NC(=O)C3(c2ccc(C(F)(F)F)cn2)C2CC2)cn2ccnc12 (stereo not shown) [Example 133A, 4-amino-2-(8-butylimidazo[1,2-a]pyrazin-6-yl)-5-cyclopropyl-5-(5-(trifluoromethyl)pyridin-2-yl)-5H-pyrrolo[2,3-d]pyrimidin-6(7H)-one]
10 | 166 | 667 | CC1(c2cc(F)cc(F)c2)C(=O)Nc2nc(-c3cn4ccnc4cn3)nc(N)c21 (stereo not shown) [Example 142B, 4-amino-5-(3,5-difluorophenyl)-2-(imidazo[1,2-a]pyrazin-6-yl)-5-methyl-5H-pyrrolo[2,3-d]pyrimidin-6(7H)-one]
11 | 96 | 385 | CC1(c2ccc(OC(F)(F)F)cc2)C(=O)Nc2nc(-c3cn4ccnc4cn3)nc(N)c21 (stereo not shown) [Example 145A, 4-amino-2-(imidazo[1,2-a]pyrazin-6-yl)-5-methyl-5-(4-(trifluoromethoxy)phenyl)-5H-pyrrolo[2,3-d]pyrimidin-6(7H)-one]
